This note sets out measurements from patent US9714236B2, “Compounds and methods for inhibiting JAK” (AstraZeneca AB, priority 2015, dated 2017).

Type in all cases: biochemical
The target of assay [1] is recombinant JAK1 (amino acids 866-1154) (Homo sapiens (Human), UniProt P23458). Briefly: Enzyme inhibition studies, JAK1 (peptide phosphorylation, Caliper LC3000). Particulars: ATP concentration not given (assayed at ATP Km 55 μM and at 5 mM). How it is done:
(§1) Enzyme inhibition studies were performed using recombinant JAK1 (amino acids 866-1154, Life Technologies, #PV4774, Carlsbad, Calif.), JAK2 (amino acids 831-1132), or JAK3 (amino acids 781-1124) under buffer conditions of 50 mM HEPES pH 7.3, 1 mM DTT, 0.01% Tween® 20, 50 μg/mL BSA, and 10 mM MgCl2. JAK enzyme was expressed as an N-terminal GST fusion in insect cells and purified by glutathione-affinity and size-exclusion chromatographies. […] Phosphorylated and unphosphorylated peptides were separated and quantified by a Caliper LC3000 system (Caliper Life Sciences, MA) for calculating percent inhibition.

Assay [2] deals with recombinant JAK2 (amino acids 831-1132) (Homo sapiens (Human), UniProt O60674). The assay can be described thus: Enzyme inhibition studies, JAK2 (peptide phosphorylation, Caliper LC3000). Particulars: ATP concentration of the tabulated values not stated (assayed at ATP Km 15 μM and at 5 mM). How it is done: as §1
In assay [3] the target is recombinant JAK3 (amino acids 781-1124) (Homo sapiens (Human), UniProt P52333). Briefly: Enzyme inhibition studies, JAK3 (peptide phosphorylation, Caliper LC3000). Conditions: ATP concentration of the tabulated values not stated (assayed at ATP Km 3 μM and at 5 mM). How it is done:
as §1

Sequence of recombinant JAK3 (amino acids 781-1124) (P52333 781-1124): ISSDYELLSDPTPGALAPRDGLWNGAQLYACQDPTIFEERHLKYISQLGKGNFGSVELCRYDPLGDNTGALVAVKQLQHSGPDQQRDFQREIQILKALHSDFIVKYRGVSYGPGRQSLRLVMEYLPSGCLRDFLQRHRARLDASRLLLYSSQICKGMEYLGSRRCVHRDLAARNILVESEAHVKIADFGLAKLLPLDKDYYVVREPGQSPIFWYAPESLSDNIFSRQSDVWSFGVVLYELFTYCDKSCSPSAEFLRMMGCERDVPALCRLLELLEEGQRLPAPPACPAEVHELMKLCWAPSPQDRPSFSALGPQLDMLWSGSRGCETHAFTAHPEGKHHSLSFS
Sequence of recombinant JAK2 (amino acids 831-1132) (O60674 831-1132): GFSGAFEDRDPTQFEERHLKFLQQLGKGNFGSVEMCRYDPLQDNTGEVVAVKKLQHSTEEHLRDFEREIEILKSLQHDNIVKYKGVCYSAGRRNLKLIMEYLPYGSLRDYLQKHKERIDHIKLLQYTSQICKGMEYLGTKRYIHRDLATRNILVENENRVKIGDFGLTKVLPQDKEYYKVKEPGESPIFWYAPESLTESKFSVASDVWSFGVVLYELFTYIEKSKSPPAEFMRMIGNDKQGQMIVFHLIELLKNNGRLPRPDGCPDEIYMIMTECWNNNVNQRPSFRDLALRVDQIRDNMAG
Sequence of recombinant JAK1 (amino acids 866-1154) (P23458 866-1154): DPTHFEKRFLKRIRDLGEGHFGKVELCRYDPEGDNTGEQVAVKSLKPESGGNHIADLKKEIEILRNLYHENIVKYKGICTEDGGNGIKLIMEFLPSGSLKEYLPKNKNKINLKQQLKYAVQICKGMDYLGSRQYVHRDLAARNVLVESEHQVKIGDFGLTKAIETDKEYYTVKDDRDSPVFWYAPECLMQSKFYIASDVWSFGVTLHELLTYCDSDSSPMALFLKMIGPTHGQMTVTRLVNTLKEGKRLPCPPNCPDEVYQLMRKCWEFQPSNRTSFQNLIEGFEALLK

Consider `COc1nn(C)cc1Nc1ncc(C)c(-c2c[nH]c3c(NC(=O)[C@@H](C)N4CCN(C)CC4)cccc23)n1` [Example 34, (2R)-N-(3-{2-[(3-Methoxy-1-methyl-1H-pyrazol-4-yl)amino]-5-methylpyrimidin-4-yl}-1H-indol-7-yl)-2-(4-methylpiperazin-1-yl)propanamide], for which the IC50 in assay [1] is 10 nM; in assay [2] it was 5.37 µM; in assay [3], greater than 30 µM.

Take `CCOc1nn(C)cc1Nc1ncc(C)c(-c2c[nH]c3c(NC(=O)[C@@H](C)N4CCN(C)CC4)cccc23)n1` [Example 35, (2R)-N-(3-{2-[(3-ethoxy-1-methyl-1H-pyrazol-4-yl)amino]-5-methylpyrimidin-4-yl}-1H-indol-7-yl)-2-(4-methylpiperazin-1-yl)propanamide]: the IC50 in assay [1] is 20 nM; in assay [2] it was 17 µM; in assay [3], greater than 30 µM.

As for `COc1nn(C)cc1Nc1ncc(Cl)c(-c2c[nH]c3c(NC(=O)[C@@H](C)N4CCN(C)CC4)cccc23)n1` [Example 36, (2R)-N-(3-{5-chloro-2-[(3-methoxy-1-methyl-1H-pyrazol-4-yl)amino]pyrimidin-4-yl}-1H-indol-7-yl)-2-(4-methylpiperazin-1-yl)propanamide], the IC50 in assay [1] amounted to 7 nM; in assay [2], 1.76 µM; in assay [3] it was 19.1 µM.

As to `COc1nn(C)cc1Nc1ncc(Br)c(-c2c[nH]c3c(NC(=O)[C@@H](C)N4CCN(C)CC4)cccc23)n1` [Example 37, (2R)-N-(3-{5-bromo-2-[(3-methoxy-1-methyl-1H-pyrazol-4-yl)amino]pyrimidin-4-yl}-1H-indol-7-yl)-2-(4-methylpiperazin-1-yl)propanamide], the IC50 is 8 nM in assay [1], 1.58 µM in assay [2] and 15.4 µM in assay [3].

For the compound `COc1nn(C)cc1Nc1ncc(C)c(-c2c[nH]c3c(NC(=O)[C@@H](C)N4CCN(C)C[C@H]4C)cccc23)n1` [Example 38, (2R)-2-[(2R)-2,4-dimethylpiperazin-1-yl]-N-(3-{2-[(3-methoxy-1-methyl-1H-pyrazol-4-yl)amino]-5-methylpyrimidin-4-yl}-1H-indol-7-yl)propanamide], the IC50 was 13 nM in assay [1], 6.48 µM in assay [2] and greater than 30 µM in assay [3].

As for `CCOc1nn(C)cc1Nc1ncc(F)c(-c2c[nH]c3c(NC(=O)[C@@H](C)N4CCN(C)CC4)cccc23)n1` [Example 39, (2R)-N-(3-{2-[(3-ethoxy-1-methyl-1H-pyrazol-4-yl)amino]-5-fluoropyrimidin-4-yl}-1H-indol-7-yl)-2-(4-methylpiperazin-1-yl)propanamide], the IC50 was 55 nM in assay [1], 25.5 µM in assay [2] and greater than 30 µM in assay [3].

For the compound `CCOc1nn(C)cc1Nc1ncc(Cl)c(-c2c[nH]c3c(NC(=O)[C@@H](C)N4CCN(C)CC4)cccc23)n1` [Example 40, (2R)-N-(3-{5-chloro-2-[(3-ethoxy-1-methyl-1H-pyrazol-4-yl)amino]pyrimidin-4-yl}-1H-indol-7-yl)-2-(4-methylpiperazin-1-yl)propanamide], the values for the IC50 in assay [1], in assay [2] and in assay [3] were 24 nM, 8.93 µM and greater than 30 µM, respectively.

On to `Cc1cnc(Nc2cn(C)nc2C)nc1-c1c[nH]c2c(NC(=O)[C@@H](C)N3CCN(C)CC3)cccc12` [Example 41, (2R)-N-(3-{2-[(1,3-dimethyl-1H-pyrazol-4-yl)amino]-5-methylpyrimidin-4-yl}-1H-indol-7-yl)-2-(4-methylpiperazin-1-yl)propanamide], for which the IC50 in assay [1] is less than 5 nM; in assay [2], 2.58 µM; in assay [3] it was greater than 30 µM.

For `Cc1cnc(Nc2cn(C)nc2C)nc1-c1c[nH]c2c(NC(=O)[C@H](C)N3CCN(C)CC3)cccc12` [Example 42, (2S)-N-(3-{2-[(1,3-dimethyl-1H-pyrazol-4-yl)amino]-5-methylpyrimidin-4-yl}-1H-indol-7-yl)-2-(4-methylpiperazin-1-yl)propanamide], the figures for the concentration for half-maximal inhibition (IC50) in assay [1], in assay [2] and in assay [3] were 106 nM, 21.1 µM and greater than 30 µM, respectively.

For the compound `CC[C@@H](C(=O)Nc1cccc2c(-c3nc(Nc4cn(C)nc4OC)ncc3C)c[nH]c12)N1CCN(C)CC1` [Example 43, (2S)-N-(3-{2-[(3-Methoxy-1-methyl-1H-pyrazol-4-yl)amino]-5-methylpyrimidin-4-yl}-1H-indol-7-yl)-2-(4-methylpiperazin-1-yl)butanamide], the IC50 in assay [1] was 79 nM; in assay [2], 21.1 µM; in assay [3] it was greater than 30 µM.

For the compound `CC[C@H](C(=O)Nc1cccc2c(-c3nc(Nc4cn(C)nc4OC)ncc3C)c[nH]c12)N1CCN(C)CC1` [Example 44, (2R)-N-(3-{2-[(3-Methoxy-1-methyl-1H-pyrazol-4-yl)amino]-5-methylpyrimidin-4-yl}-1H-indol-7-yl)-2-(4-methylpiperazin-1-yl)butanamide], the IC50 in assay [1] was less than 4 nM; in assay [2] it was 1.95 µM; in assay [3] it was greater than 30 µM.

Turning to `COC[C@H](C(=O)Nc1cccc2c(-c3nc(Nc4cn(C)nc4OC)ncc3C)c[nH]c12)N1CCN(C)CC1` [Example 45, (2R)-3-methoxy-N-(3-{2-[(3-methoxy-1-methyl-1H-pyrazol-4-yl)amino]-5-methylpyrimidin-4-yl}-1H-indol-7-yl)-2-(4-methylpiperazin-1-yl)propanamide], the IC50 was less than 3 nM in assay [1], 0.79 µM in assay [2] and greater than 30 µM in assay [3].

With `COC[C@@H](C(=O)Nc1cccc2c(-c3nc(Nc4cn(C)nc4OC)ncc3C)c[nH]c12)N1CCN(C)CC1` [Example 46, (2S)-3-methoxy-N-(3-{2-[(3-methoxy-1-methyl-1H-pyrazol-4-yl)amino]-5-methylpyrimidin-4-yl}-1H-indol-7-yl)-2-(4-methylpiperazin-1-yl)propanamide], the IC50 in assay [1] is 986 nM; in assay [2], greater than 30 µM; in assay [3], greater than 30 µM.

Regarding `CC[C@H](C(=O)Nc1cccc2c(-c3ccnc(Nc4cn(C)nc4OC)n3)c[nH]c12)N1CCN(C)CC1` [Example 47, (2R)-N-(3-{2-[(3-Methoxy-1-methyl-1H-pyrazol-4-yl)amino]pyrimidin-4-yl}-1H-indol-7-yl)-2-(4-methylpiperazin-1-yl)butanamide], the IC50 in assay [1] is 13 nM; in assay [2], 6.95 µM; in assay [3] it was greater than 30 µM.

As for `CC[C@@H](C(=O)Nc1cccc2c(-c3ccnc(Nc4cn(C)nc4OC)n3)c[nH]c12)N1CCN(C)CC1` [Example 48, (2S)-N-(3-{2-[(3-Methoxy-1-methyl-1H-pyrazol-4-yl)amino]pyrimidin-4-yl}-1H-indol-7-yl)-2-(4-methylpiperazin-1-yl)butanamide], the values for the IC50 in assay [1], in assay [2] and in assay [3] were 1210 nM, greater than 30 µM and greater than 30 µM, respectively.

For the compound `CC[C@H](C(=O)Nc1cccc2c(-c3nc(Nc4cn(C)nc4C)ncc3F)c[nH]c12)N1CCN(C)CC1` [Example 49, (2R)-N-(3-{2-[(1,3-dimethyl-1H-pyrazol-4-yl)amino]-5-fluoropyrimidin-4-yl}-1H-indol-7-yl)-2-(4-methylpiperazin-1-yl)butanamide], the IC50 is less than 4 nM in assay [1], 1.77 µM in assay [2] and greater than 30 µM in assay [3].

Take `CC[C@@H](C(=O)Nc1cccc2c(-c3nc(Nc4cn(C)nc4C)ncc3F)c[nH]c12)N1CCN(C)CC1` [Example 50, (2S)-N-(3-{2-[(1,3-dimethyl-1H-pyrazol-4-yl)amino]-5-fluoropyrimidin-4-yl}-1H-indol-7-yl)-2-(4-methylpiperazin-1-yl)butanamide]: the IC50 is 265 nM in assay [1], 24.1 µM in assay [2] and greater than 30 µM in assay [3].

On to `COC[C@H](C(=O)Nc1cccc2c(-c3nc(Nc4cn(C)nc4C)ncc3F)c[nH]c12)N1CCN(C)CC1` [Example 53, (2R)-N-(3-{2-[(1,3-dimethyl-1H-pyrazol-4-yl)amino]-5-fluoropyimidin-4-yl}-1H-indol-7-yl)-3-methoxy-2-(4-methylpiperazin-1-yl)propanamide], for which the IC50 in assay [1] was less than 3 nM; in assay [2], 0.322 µM; in assay [3], greater than 30 µM.

For the compound `COC[C@@H](C(=O)Nc1cccc2c(-c3nc(Nc4cn(C)nc4C)ncc3F)c[nH]c12)N1CCN(C)CC1` [Example 54, (2S)-N-(3-{2-[(1,3-dimethyl-1H-pyrazol-4-yl)amino]-5-fluoropyrimidin-4-yl}-1H-indol-7-yl)-3-methoxy-2-(4-methylpiperazin-1-yl)propanamide], the IC50 in assay [1] is 1670 nM; in assay [2], greater than 30 µM; in assay [3], greater than 30 µM.

Turning to `CCc1nn(C)cc1Nc1ncc(C)c(-c2c[nH]c3c(NC(=O)[C@@H](C)N4CCN(C)CC4)cccc23)n1` [Example 55, (2R)-N-(3-{2-[(3-ethyl-1-methyl-1H-pyrazol-4-yl)amino]-5-methylpyrimidin-4-yl}-1H-indol-7-yl)-2-(4-methylpiperazin-1-yl)propanamide], the results for the IC50 in assay [1], in assay [2] and in assay [3] were 27 nM, 4.22 µM and greater than 30 µM, respectively.

As to `Cc1nn(C)cc1Nc1ncc(F)c(-c2c[nH]c3c(NC(=O)[C@@H](C)N4CCN(C)CC4)cccc23)n1` [Example 56, (2R)-N-(3-{2-[(1,3-dimethyl-1H-pyrazol-4-yl)amino]-5-fluoropyrimidin-4-yl}-1H-indol-7-yl)-2-(4-methylpiperazin-1-yl)propanamide], the IC50 in assay [1] was 28 nM; in assay [2], 5.15 µM; in assay [3], greater than 30 µM.
